The values that follow come from publication PMC4873255 (Bioorganic & medicinal chemistry letters, 2015).

Test [1] has as its target rat μ-opioid receptors (rMOR) (Rattus norvegicus, UniProt P33535). As to the kind of experiment: biochemical. It is filed as binding.
Test [2] has as its target human δ opioid receptors (hDOR) (Homo sapiens, UniProt P41143). As to the kind of experiment: biochemical. It is filed as binding.
Another test has as its target δ opioid receptors (Mus musculus, UniProt P32300). As to the kind of experiment: cell-based.
The next test has as its target μ opioid receptors (Cavia porcellus, UniProt P97266). As to the kind of experiment: cell-based. On the set-up: species or system guinea pig.

Chain of human δ opioid receptors (hDOR) (P41143 whole entry): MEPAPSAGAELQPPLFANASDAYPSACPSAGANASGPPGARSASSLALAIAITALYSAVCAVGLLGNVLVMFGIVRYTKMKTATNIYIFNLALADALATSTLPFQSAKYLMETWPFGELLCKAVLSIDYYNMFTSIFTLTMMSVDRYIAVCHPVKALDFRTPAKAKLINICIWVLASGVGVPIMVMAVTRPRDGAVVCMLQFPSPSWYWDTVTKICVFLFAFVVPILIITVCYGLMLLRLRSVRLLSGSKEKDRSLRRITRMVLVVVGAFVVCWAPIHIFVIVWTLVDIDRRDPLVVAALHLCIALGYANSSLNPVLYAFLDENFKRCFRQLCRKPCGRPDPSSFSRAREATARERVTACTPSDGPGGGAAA
Chain of rat μ-opioid receptors (rMOR) (P33535 whole entry): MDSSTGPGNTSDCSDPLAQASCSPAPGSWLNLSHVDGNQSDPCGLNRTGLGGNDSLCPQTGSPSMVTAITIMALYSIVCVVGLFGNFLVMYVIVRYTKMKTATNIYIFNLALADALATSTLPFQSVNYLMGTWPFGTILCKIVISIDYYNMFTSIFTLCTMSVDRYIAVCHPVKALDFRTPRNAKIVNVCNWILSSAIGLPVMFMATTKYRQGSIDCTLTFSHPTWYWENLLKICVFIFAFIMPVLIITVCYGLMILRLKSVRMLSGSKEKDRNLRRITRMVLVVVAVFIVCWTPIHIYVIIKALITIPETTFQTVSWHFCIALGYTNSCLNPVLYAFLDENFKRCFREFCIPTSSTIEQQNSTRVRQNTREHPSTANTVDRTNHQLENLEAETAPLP
Chain of μ opioid receptors (P97266 whole entry, looked up): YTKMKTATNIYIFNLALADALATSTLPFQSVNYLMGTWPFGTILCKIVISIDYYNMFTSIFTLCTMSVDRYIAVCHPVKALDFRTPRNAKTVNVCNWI
Chain of δ opioid receptors (P32300 whole entry): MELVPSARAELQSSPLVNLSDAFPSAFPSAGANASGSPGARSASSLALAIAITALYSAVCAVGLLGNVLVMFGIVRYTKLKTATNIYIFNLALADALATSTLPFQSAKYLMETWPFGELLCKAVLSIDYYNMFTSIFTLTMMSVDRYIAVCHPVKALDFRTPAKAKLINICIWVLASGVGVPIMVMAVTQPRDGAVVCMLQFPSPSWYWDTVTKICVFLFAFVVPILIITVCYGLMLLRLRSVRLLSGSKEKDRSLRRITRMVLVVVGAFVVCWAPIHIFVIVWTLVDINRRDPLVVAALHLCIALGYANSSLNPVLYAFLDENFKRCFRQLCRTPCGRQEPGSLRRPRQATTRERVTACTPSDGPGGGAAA

In the case of `CCC(=O)N(CC1CCCCN1Cc1ccc2c(c1)CCC[C@H]2N(C(=O)CCNC(=O)[C@H](Cc1ccccc1)NC(=O)CNC(=O)[C@@H](C)NC(=O)[C@@H](N)Cc1c(C)cc(O)cc1C)C(=O)CCNC(=O)[C@H](Cc1ccccc1)NC(=O)CNC(=O)[C@@H](C)NC(=O)[C@@H](N)Cc1c(C)cc(O)cc1C)c1ccc(F)c(F)c1` (stereo partly drawn) [Compound 10], the IC50 – broadly, the concentration that gives 50% inhibition – was 1.29 nM in test [1], 1.41 nM in test [2], 6.1 ± 1.5 nM at δ opioid receptors and 2.1 ± 0.45 nM at μ opioid receptors. In addition, the Ki in test [1] and in test [2] was 0.6 nM each time.
